# Experiments:
# Format in all cases: in vivo
# [1] = system: Matricaria inodora; assay: Post-emergence herbicidal action; details: application rate 20 g/ha, rated visually after about 3 weeks vs untreated controls
# Description: (§1) a. Post-Emergence Herbicidal Action and Crop Plant Compatibility Seeds of monocotyledonous and dicotyledonous weeds and crop plants were placed in sandy loam in plastic or wood-fiber pots, covered with soil and cultivated in a greenhouse under controlled growth conditions. 2 to 3 weeks after sowing, the test plants were treated at the one-leaf stage. The compounds of the invention, formulated in the form of wettable powders (WP) or as emulsion concentrates (EC), were then sprayed onto the green parts of the plants as aqueous suspension or emulsion with addition of 0.5% additive at a water application rate of 600 l/ha (converted). After the test plants had been kept in the greenhouse under optimum growth conditions for about 3 weeks, the activity of the preparations was rated visually in comparison to untreated controls. For example, 100% activity=the plants have died, 0% activity=like control plants. Tables A1 to A15 below show the effects of selected compounds of the general formula (I) according to Tables I.1 to I.36 on various harmful plants and at an application rate corresponding to 20 g/ha and less, which were obtained by the experimental procedure mentioned above.
# [2] = system: Abutilon theophrasti; assay: Post-emergence herbicidal action; details: application rate 20 g/ha, rated visually after about 3 weeks vs untreated controls
# Description: as §1
# [3] = system: Pharbitis purpurea; assay: Post-emergence herbicidal action; details: application rate 20 g/ha, rated visually after about 3 weeks vs untreated controls
# Description: as §1
# [4] = system: Viola tricolor; assay: Post-emergence herbicidal action; details: application rate 20 g/ha
# Description: as §1
# [5] = system: Alopecurus myosuroides; assay: Post-emergence herbicidal action; details: application rate 20 g/ha, rated visually after about 3 weeks vs untreated controls
# Description: as §1
# [6] = system: Veronica persica; assay: Post-emergence herbicidal action; details: application rate 20 g/ha
# Description: as §1
# [7] = system: Amaranthus retroflexus; assay: Post-emergence herbicidal action; details: application rate 20 g/ha, rated visually after about 3 weeks vs untreated controls
# Description: as §1
# [8] = system: Setaria viridis; assay: Post-emergence herbicidal action; details: application rate 20 g/ha, rated visually after about 3 weeks vs untreated controls
# Description: as §1
# [9] = system: Digitaria sanguinalis; assay: Post-emergence herbicidal action; details: application rate 20 g/ha, rated visually after about 3 weeks vs untreated controls
# Description: as §1
# [10] = system: Echinochloa crus-galli; assay: Post-emergence herbicidal action; details: application rate 20 g/ha, rated visually after about 3 weeks vs untreated controls
# Description: as §1
# [11] = system: Oryza sativa; assay: Post-emergence crop plant compatibility; details: application rate 20 g/ha
# Description: a. Post-Emergence Herbicidal Action and Crop Plant Compatibility
# as §1, with “Seeds” for “a. Post-Emergence Herbicidal Action and Crop Plant Compatibility Seeds”, “plants.” for “plants. Tables A1 to A15 below show the effects of selected compounds of the general formula (I) according to Tables I.1 to I.36 on various harmful plants and at an application rate corresponding to 20 g/ha and less, which were obtained by the experimental procedure mentioned above.”
# Tables A16 to A19 below show the crop plant compatibilities of selected compounds of the general formula (I) according to Tables I.1 to I.36 at an application rate corresponding to 5 g/ha or 20 g/ha, which were obtained in experiments according to the experimental procedure mentioned above. Here, the observed effects on selected crop plants are stated in comparison to the untreated controls (values in %).
# [12] = system: Avena fatua; assay: Post-emergence herbicidal action; details: application rate 20 g/ha, rated visually after about 3 weeks vs untreated controls
# Description: as §1
# [13] = system: Polygonum convolvulus; assay: Post-emergence herbicidal action; details: application rate 20 g/ha
# Description: as §1
# [14] = system: Lolium rigidum; assay: Post-emergence herbicidal action; details: application rate 20 g/ha, rated visually after about 3 weeks vs untreated controls
# Description: as §1
Structure (SMILES),Matricaria inodora (efficacy in %) [1],Abutilon theophrasti (efficacy in %) [2],Pharbitis purpurea (efficacy in %) [3],Viola tricolor (efficacy in %) [4],Alopecurus myosuroides (efficacy in %) [5],Veronica persica (efficacy in %) [6],Amaranthus retroflexus (efficacy in %) [7],Setaria viridis (efficacy in %) [8],Digitaria sanguinalis (efficacy in %) [9],Echinochloa crus-galli (efficacy in %) [10],Oryza sativa (efficacy in %) [11],Avena fatua (efficacy in %) [12],Polygonum convolvulus (efficacy in %) [13],Lolium rigidum (efficacy in %) [14]
"COCCOCCOC(=O)COc1ncc(F)cc1Sc1cc(-n2c(=O)cc(C(F)(F)F)n(C)c2=O)c(F)cc1Cl [I.31-23, 2-(2-Methoxyethoxy)ethyl {[3-({5-[3-methyl-2,6-dioxo-4-(trifluoromethyl)-3,6-dihydropyrimidin-1(2H)-yl]-2-chloro-4-fluorophenyl}sulfanyl)-5-fluoropyridin-2-yl]oxy}acetate]",100%,100%,100%,100%,90%,100%,100%,100%,100%,100%,20%,–,–,–
CCOC(COC(=O)COc1ncccc1Oc1cc(-n2c(=O)cc(C(F)(F)F)n(C)c2=O)c(F)cc1Cl)OCC [I.15-422],100%,100%,100%,100%,100%,100%,100%,100%,100%,100%,–,80%,100%,100%
Cn1c(C(F)(F)F)cc(=O)n(-c2cc(Oc3cccnc3OCC(=O)OCC3CCCO3)c(Br)cc2F)c1=O (stereo not shown) [I.16-71],100%,100%,100%,100%,100%,100%,100%,100%,100%,100%,–,90%,100%,90%
COCCOCCOC(=O)COc1ncccc1Oc1cc(-n2c(=O)cc(C(F)(F)F)n(C)c2=O)c(F)cc1Br [I.16-23],100%,100%,100%,100%,100%,100%,100%,100%,100%,100%,–,100%,100%,100%
CCS(=O)(=O)NCCOC(=O)COc1ncccc1Oc1cc(-n2c(=O)cc(C(F)(F)F)n(C)c2=O)c(F)cc1Cl [I.15-421],100%,100%,100%,100%,100%,100%,100%,100%,100%,100%,–,100%,100%,100%
CCOCCOC(=O)COc1ncccc1Oc1cc(-n2c(=O)cc(C(F)(F)F)n(C)c2=O)c(F)cc1Br [I.16-2],100%,100%,100%,100%,100%,100%,100%,100%,100%,100%,–,100%,100%,100%
COCCOC(=O)COc1ncccc1Oc1cc(-n2c(=O)cc(C(F)(F)F)n(C)c2=O)c(F)cc1Br [I.16-1],100%,100%,100%,100%,100%,100%,100%,100%,100%,100%,–,90%,100%,90%
COCCOC(=O)COc1ncccc1Oc1cc(-n2c(=O)cc(C(F)(F)F)n(C)c2=O)c(F)cc1C#N [I.35-1],100%,100%,100%,100%,100%,100%,100%,100%,100%,100%,–,100%,100%,80%
Cn1c(C(F)(F)F)cc(=O)n(-c2cc(Oc3cc(F)cnc3OCC(=O)OCc3ccccn3)c(Cl)cc2F)c1=O [I.36-286],90%,100%,100%,100%,100%,100%,100%,100%,100%,100%,–,80%,100%,80%

# — patent US20220289708A1, “SUBSTITUTED N-PHENYL URACILS, SALTS THEREOF AND THEIR USE AS HERBICIDAL AGENTS” (Bayer Aktiengesellschaft, priority 2019, published 2022)
